Assay results: patent publication US12071624B2, “Antisense oligonucleotide targeting ARL4C molecule, and nucleic acid drug using antisense oligonucleotide” (OSAKA UNIVERSITY, priority 2018, dated 2024)

Tests used:
Type in all cases: cell-based, human
ARL4C mRNA [1] = assay: Screening of ARL4C ASO knockdown efficiency by real-time PCR in A549 cells; conditions: screening of 38 types of ARL4C ASOs
Protocol: (§1) HLE cells, HCT116 cells, and A549 cells were transfected with 25 to 50 nM ASO and 10 to 20 nM siRNA using Lipofectamine 3000 (Invitrogen, Carlsbad, CA, USA) or RNAiMAX (Invitrogen). Transfected cells were used in the experiments 36 to 48 hours after the end of the transfection.
(§2) Cell migration assays and quantitative real-time PCR analyses were performed according to the methods reported by Fujii S et al. (Oncogene 2015; 34: 4834-44).
First, base sequences of 15-nucleotide ARL4C were selected based on the structure of ARL4C mRNA. From thousands of ARL4C ASO candidates, those that may cause hepatotoxicity were excluded, and 38 types of ARL4C ASOs (those other than ASO-1312, ASO-1450 and ASO-3223 among the ASOs in Table 1) were selected, by high-dimensional structure prediction of ARL4C mRNA. The ASOs used in this test were those in which all of the phosphodiester bonds were substituted with phosphorothioate bonds. Knockdown efficiencies of ARL4C ASOs in A549 cells (lung adenocarcinoma cells) were investigated by screening experiments using real-time PCR. It has been confirmed that the protein abundance of ARL4C in A549 cells is reduced by treatment with ARL4C siRNA. The ARL4C mRNA amounts in A549 cells treated with 38 types of ARL4C ASOs were measured, and the results are shown in (a) of FIG. 3.

ARL4C mRNA [2] = assay: ARL4C mRNA amount by real-time PCR in HLE cells
Protocol: as §1, §2
(§3) HLE cells and HCT116 cells were transfected with the above-described seven types of ARL4C ASOs and the control ASO at 25 nM, and the ARL4C mRNA amounts were measured by real-time PCR; the results thereof are shown in (a) of FIG. 4. […] In order to optimize the effect of these three types of ARL4C ASOs, four bases were added to each of these three types of ARL4C ASOs, whereby ASO-1312, ASO-1450, and ASO-3223 each of which consisted of 19 bases were produced. With these six types of ARL4C ASOs (ASO-1316, ASO-1312, ASO-1454, ASO-1450, ASO-3225, and ASO-3223), the knockdown effect on ARL4C was further studied.
HLE cells were transfected with ARL4C ASOs (ASO-1316, ASO-1312, ASO-1454, ASO-1450, ASO-3225, and ASO-3223) at 25 nM each, and the ARL4C mRNA amounts were measured by real-time PCR; the results are shown in (c) of FIG. 3. In addition, HLE cells were transfected with ARL4C ASOs (ASO-1316, ASO-1312, ASO-3225, and ASO-3223) at 0.5 to 25 nM each, and the ARL4C mRNA amounts were measured by real-time PCR; the results are shown in (b) of FIG. 4.
HLE cells were treated with 10 μM PD184161 or 10 nM CTNNB1 siRNA (siRNA against CTNNB1), and the ARL4C mRNA amount was measured by real-time PCR; the results are shown in (a) of FIG. 5. In addition, HLE cells were treated with 10 nM CTNNB1 siRNA (siRNA against CTNNB1), and the ARL4C mRNA amount was measured by real-time PCR; the results thereof are shown in (a) of FIG. 6. PD184161 is a compound that inhibits MEK without knocking down […].

ARL4C mRNA [3] = assay: ARL4C mRNA amount by real-time PCR in HCT116 cells; conditions: HCT116 cells transfected at 25 nM
Protocol: as §1, §2, §3

PIK3CD mRNA [4] = assay: PIK3CD mRNA amount by real-time PCR in HLE cells; conditions: HLE cells treated with 25 μM SecinH3
Protocol: as §1, §2
HLE cells were treated with 25 μM SecinH3 (inhibitor of Arf nucleotide-binding site opener (ARNO)) or 50 μM NSC23766 (Rac inhibitor), and the amount of PIK3CD mRNA was measured by real-time PCR; the results are shown in (c) of FIG. 5.
HLE cells were transfected with control ASO, ASO-1316, and ASO-3223 at 25 nM, and the PIK3CD mRNA amount was measured by real-time PCR; the results are shown in (g) of FIG. 5. In addition, an anti-phosphorylated AKT (pAKT S473) antibody and an anti-AKT antibody as probes were caused to act on cell lysates of HLE cells transfected with control ASO, ASO-1316, and ASO-3223; the results are shown in (h) of FIG. 5.

PIK3CD mRNA [5] = assay: PIK3CD mRNA amount by real-time PCR in ARL4C-expressing HepG2 cells; conditions: ARL4C-transduced HepG2 cells, 25 μM SecinH3 or 50 μM NSC23766

Molecule: ASO-1454: 15-mer ARL4C ASO of Table 1, SEQ ID NO 14 (antisense NNNACAAATGAANNT; AmNA modifications; Amido-bridged nucleic acid (AmNA); modified_base (1)..(1) n is Adenine having a structure of AmNA (2′,4′- bridged nucleotide in which R is a methyl group); (1)..(3) n is a, c, g, or t; modified_base (2)..(2) n is Guanine having a structure of AmNA (2′,4′- bridged nucleotide in which R is a methyl group); modified_base (3)..(3) n is Guanine having a structure of AmNA (2′,4′- bridged nucleotide in w)
- knockdown efficiency (ARL4C mRNA amount) (ARL4C mRNA [1]): high knockdown efficiencies
- ARL4C mRNA amount (ARL4C mRNA [2]; HLE cells transfected at 25 nM): reduced the ARL4C mRNA amount
- ARL4C mRNA amount (ARL4C mRNA [3]): reduced the ARL4C mRNA amount

Molecule: ASO-3225: 15-mer ARL4C ASO of Table 1, SEQ ID NO 35 (antisense NNNTTACAGTATNNG; AmNA modifications; Amido-bridged nucleic acid (AmNA); modified_base (1)..(1) n is Adenine having a structure of AmNA (2′,4′- bridged nucleotide in which R is a methyl group); (1)..(3) n is a, c, g, or t; modified_base (2)..(2) n is Guanine having a structure of AmNA (2′,4′- bridged nucleotide in which R is a methyl group); modified_base (3)..(3) n is Guanine having a structure of AmNA (2′,4′- bridged nucleotide in w)
- knockdown efficiency (ARL4C mRNA amount) (ARL4C mRNA [1]): high knockdown efficiencies
- ARL4C mRNA amount (ARL4C mRNA [2]; HLE cells transfected at 25 nM): reduced the ARL4C mRNA amount
- ARL4C mRNA amount (ARL4C mRNA [3]): reduced the ARL4C mRNA amount

Molecule: ASO-986: 15-mer ARL4C ASO of Table 1, SEQ ID NO 10 (antisense NNNTCATAGAGCNNG; AmNA modifications; Amido-bridged nucleic acid (AmNA); modified_base (1)..(1) n is Adenine having a structure of AmNA (2′,4′- bridged nucleotide in which R is a methyl group); (1)..(3) n is a, c, g, or t; modified_base (2)..(2) n is 5-methylcytosine having a structure of AmNA (2′,4′-bridged nucleotide in which R is a methyl group); modified_base (3)..(3) n is Thymine having a structure of AmNA (2′,4′- bridged nucleot)
- knockdown efficiency (ARL4C mRNA amount) (ARL4C mRNA [1]): high knockdown efficiencies

Molecule: COc1nc(-c2ccc3c(c2)OCO3)n(-c2ccc(NC(=O)CSc3ccccc3)cc2)n1 [SecinH3, reference compound]
- PIK3CD mRNA amount (PIK3CD mRNA [4]): reduced the PIK3CD mRNA amount
- PIK3CD mRNA amount (PIK3CD mRNA [5]): suppressed an increase in the PIK3CD mRNA amount

Molecule: CCN(CC)CCCC(C)Nc1nc(C)cc(Nc2ccc3nc(C)cc(N)c3c2)n1 (centres unmarked) [NSC23766]
- PIK3CD mRNA amount (PIK3CD mRNA [5]): suppressed an increase in the PIK3CD mRNA amount

Molecule: ASO-1065: 15-mer ARL4C ASO of Table 1, SEQ ID NO 11 (antisense NNNAAATCAGACNNC; AmNA modifications; Amido-bridged nucleic acid (AmNA); modified_base (1)..(1) n is Guanine having a structure of AmNA (2′,4′- bridged nucleotide in which R is a methyl group); (1)..(3) n is a, c, g, or t; modified_base (2)..(2) n is Guanine having a structure of AmNA (2′,4′- bridged nucleotide in which R is a methyl group); modified_base (3)..(3) n is Thymine having a structure of AmNA (2′,4′- bridged nucleotide in w)
- knockdown efficiency (ARL4C mRNA amount) (ARL4C mRNA [1]): high knockdown efficiencies

Molecule: ASO-793: 15-mer ARL4C ASO of Table 1, SEQ ID NO 9 (antisense NNNTGGTCACCTNNT; AmNA modifications; Amido-bridged nucleic acid (AmNA); modified_base (1)..(1) n is Adenine having a structure of AmNA (2′,4′- bridged nucleotide in which R is a methyl group); (1)..(3) n is a, c, g, or t; modified_base (2)..(2) n is 5-methylcytosine having a structure of AmNA (2′,4′-bridged nucleotide in which R is a methyl group); modified_base (3)..(3) n is Thymine having a structure of AmNA (2′,4′- bridged nucleot)
- knockdown efficiency (ARL4C mRNA amount) (ARL4C mRNA [1]): high knockdown efficiencies

Molecule: O=C(NOCC1CC1)c1cc(Br)c(F)c(F)c1Nc1ccc(I)cc1Cl [PD184161, reference compound]
- ARL4C mRNA amount (ARL4C mRNA [2]; HLE cells treated with 10 μM PD184161): reduced ARL4C mRNA amount

Molecule: ASO-650: 15-mer ARL4C ASO of Table 1, SEQ ID NO 8 (antisense NNNTGGCAGCTGNNG; AmNA modifications; Amido-bridged nucleic acid (AmNA); modified_base (1)..(1) n is Adenine having a structure of AmNA (2′,4′- bridged nucleotide in which R is a methyl group); (1)..(3) n is a, c, g, or t; modified_base (2)..(2) n is Adenine having a structure of AmNA (2′,4′- bridged nucleotide in which R is a methyl group); modified_base (3)..(3) n is Guanine having a structure of AmNA (2′,4′- bridged nucleotide in w)
- knockdown efficiency (ARL4C mRNA amount) (ARL4C mRNA [1]): high knockdown efficiencies
